{
  "source": "paper PMC3152620",
  "about": "(Peptides, 2011)",
  "target": "human NMB receptor (Homo sapiens, UniProt P28336)",
  "sequence (P28336 whole entry)": "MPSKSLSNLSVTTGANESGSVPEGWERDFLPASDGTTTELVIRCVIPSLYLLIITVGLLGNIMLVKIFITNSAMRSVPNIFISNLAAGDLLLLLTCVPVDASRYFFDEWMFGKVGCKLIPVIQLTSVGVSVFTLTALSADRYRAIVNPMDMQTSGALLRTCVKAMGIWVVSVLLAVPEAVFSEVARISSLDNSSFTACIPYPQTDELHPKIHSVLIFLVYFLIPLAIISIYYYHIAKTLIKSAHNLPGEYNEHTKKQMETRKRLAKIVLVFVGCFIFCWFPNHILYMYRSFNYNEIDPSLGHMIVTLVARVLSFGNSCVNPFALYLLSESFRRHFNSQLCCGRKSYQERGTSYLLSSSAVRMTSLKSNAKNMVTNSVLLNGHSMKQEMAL",
  "experiment": "Binding to hNMB receptors, both cell lines",
  "conditions": "relative to the natural ligand NMB",
  "note": "No end group written: not given here.",
  "data": [
    {"substance": "LSWDLPEPRSRAGKIRVHPRGNLWATGHFM-NH2 [NMB30, Neuromedin B (1–30)]", "values": [
      {"measurement": "Fold lower affinity for human NMB receptor than NMB", "result": "> 3", "unit": "fold"}
    ]}
  ]
}
